# From publication PMC6661955, “Indole bearing thiadiazole analogs: synthesis, β-glucuronidase inhibition and molecular docking study” (BMC Chemistry, 2019)
# Target: T1, β-glucuronidase (Bos taurus, UniProt A3KMY8)
# T1 sequence (A3KMY8 24-652): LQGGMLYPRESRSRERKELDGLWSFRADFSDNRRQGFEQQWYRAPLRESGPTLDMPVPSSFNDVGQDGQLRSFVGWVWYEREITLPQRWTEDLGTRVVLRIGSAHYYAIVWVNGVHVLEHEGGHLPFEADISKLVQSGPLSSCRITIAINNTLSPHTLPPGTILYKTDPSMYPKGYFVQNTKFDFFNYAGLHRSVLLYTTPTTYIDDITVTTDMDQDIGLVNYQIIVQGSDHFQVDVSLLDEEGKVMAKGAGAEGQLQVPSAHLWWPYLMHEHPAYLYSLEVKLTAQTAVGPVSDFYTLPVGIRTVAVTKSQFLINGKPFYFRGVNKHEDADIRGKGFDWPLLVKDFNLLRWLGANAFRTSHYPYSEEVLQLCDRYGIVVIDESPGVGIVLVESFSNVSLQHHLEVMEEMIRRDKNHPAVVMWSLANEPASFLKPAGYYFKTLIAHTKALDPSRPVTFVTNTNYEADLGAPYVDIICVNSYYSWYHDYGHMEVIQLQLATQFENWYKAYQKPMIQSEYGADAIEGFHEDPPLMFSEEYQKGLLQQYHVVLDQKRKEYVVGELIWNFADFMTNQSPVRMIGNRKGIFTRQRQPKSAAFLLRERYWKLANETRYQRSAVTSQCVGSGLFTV
# Experiment: β-glucuronidase inhibition
# Type: biochemical
# Conditions: grouping in words
row,Structure (SMILES),activity group according to inhibitory IC50 values
1,"Cc1ccc(-c2nnc(-c3ccc4[nH]ccc4c3)s2)cc1 [Compound 1, 2-(1H-indol-5-yl)-5-(p-tolyl)-1,3,4-thiadiazole]",low active
2,"Oc1ccccc1-c1nnc(-c2ccc3[nH]ccc3c2)s1 [Compound 3, 2-(5-(1H-indol-5-yl)-1,3,4-thiadiazol-2-yl)phenol]",highly active
3,"Oc1cccc(-c2nnc(-c3ccc4[nH]ccc4c3)s2)c1O [Compound 6, 3-(5-(1H-indol-5-yl)-1,3,4-thiadiazol-2-yl)benzene-1,2-diol]",highly active
4,"Oc1ccc(-c2nnc(-c3ccc4[nH]ccc4c3)s2)cc1O [Compound 7, 4-(5-(1H-indol-5-yl)-1,3,4-thiadiazol-2-yl)benzene-1,2-diol]",highly active
5,"Oc1ccc(-c2nnc(-c3ccc4[nH]ccc4c3)s2)cc1 [Compound 9, 4-(5-(1H-indol-5-yl)-1,3,4-thiadiazol-2-yl)phenol]",moderate active

# The next lines start with the values.
row,activity group according to inhibitory IC50 values,Structure (SMILES)
1,low active,"Cc1ccccc1-c1nnc(-c2ccc3[nH]ccc3c2)s1 [Compound 2, 2-(1H-indol-5-yl)-5-(o-tolyl)-1,3,4-thiadiazole]"
2,moderate active,"Oc1cccc(-c2nnc(-c3ccc4[nH]ccc4c3)s2)c1 [Compound 4, 3-(5-(indol-5-yl)-1,3,4-thiadiazol-2-yl)phenol]"
3,moderate active,"Fc1ccc(-c2nnc(-c3ccc4[nH]ccc4c3)s2)cc1 [Compound 20, 2-(4-fluorophenyl)-5-(1H-indol-5-yl)-1,3,4-thiadiazole]"
